Test results published in ChEMBL document CHEMBL1201862, “PubChem BioAssay data set” (2004).
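In this assay, cells in 96-well plates receive the compound at five concentrations for 48 hours. Endpoints are linearly interpolated between the surrounding concentrations. At the GI50, growth is halved.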 The source made the active and inactive calls. Cut-off read from the data, not from the text of the source: active = GI50 up to about 1.1 µM and inactive = higher.

Assays:
Assay in all cases: NCI anticancer screen, dose series, 48 h
BT-549 = system: BT-549
DLD-1 = system: DLD-1
DMS-273 = system: DMS-273
HOP-18 = system: HOP-18
KM-20L2 = system: KM-20L2
M19-MEL = system: M19-MEL
RXF 631 = system: RXF 631
SNB-78 = system: SNB-78
XF498 = system: XF498

Measured: GI50

O=C1C=C(Nc2ccccc2C(=O)CC(=O)C(=O)Nc2cccc(C(F)(F)F)c2)c2ccccc2C1=O
inactive: BT-549 8.93 µM | DLD-1 8.45 µM | DMS-273 21.5 µM | HOP-18 13.2 µM | KM-20L2 > 100 µM | M19-MEL 2.53 µM | RXF 631 > 100 µM | SNB-78 > 36.7 µM | XF498 26.2 µM

O=C1c2cccc3cccc(c23)C(=O)N1CCN(CCO)CCO
inactive: DLD-1 30.6 µM | DMS-273 22.8 µM | HOP-18 75 µM | KM-20L2 21.1 µM | M19-MEL 21.5 µM | RXF 631 35.8 µM | SNB-78 42.1 µM | XF498 28.5 µM

Cc1c(C(=O)O)oc2ccc([N+](=O)[O-])cc12
inactive: DLD-1 > 100 µM | DMS-273 > 100 µM | HOP-18 > 100 µM | KM-20L2 > 100 µM | M19-MEL > 100 µM | RXF 631 > 100 µM | SNB-78 > 100 µM | XF498 > 100 µM

CCOC(=O)C1=C(C)NC(=S)NC1c1ccccc1 (stereo not drawn)
inactive: DLD-1 > 57.9 µM | DMS-273 > 100 µM | HOP-18 > 35.6 µM | KM-20L2 > 41.4 µM | M19-MEL > 43.9 µM | RXF 631 > 100 µM | SNB-78 > 100 µM | XF498 > 39.4 µM
